Test results as given in patent US20230117324A1, “OXAZINE MONOACYLGLYCEROL LIPASE (MAGL) INHIBITORS” (Hoffmann-La Roche Inc., priority 2018, published 2023).

Target: T1, MAGL (Homo sapiens, UniProt Q99685)
T1 sequence (Q99685 1-303): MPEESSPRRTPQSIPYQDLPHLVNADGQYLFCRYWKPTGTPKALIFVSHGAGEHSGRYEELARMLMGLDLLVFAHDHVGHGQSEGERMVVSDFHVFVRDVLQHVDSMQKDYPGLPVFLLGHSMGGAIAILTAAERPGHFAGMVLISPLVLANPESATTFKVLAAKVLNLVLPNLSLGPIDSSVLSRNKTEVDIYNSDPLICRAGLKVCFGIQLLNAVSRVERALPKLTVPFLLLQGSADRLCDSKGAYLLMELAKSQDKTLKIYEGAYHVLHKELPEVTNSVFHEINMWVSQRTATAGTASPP
Test: MAGL inhibition, 2-AG assay (hydrolysis of 2-arachidonoylglycerol, arachidonic acid by mass spectrometry)
Format: biochemical
Conditions: 2-AG assay (footnote [b])
Outline: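 Hydrolysis of 8 μM 2-arachidonoylglycerol by […] was run for 30 min at RT after a 15 min compound preincubation, in Tris/EDTA/Tween buffer. Test compounds spanned […]. The product was measured by online SPE-MS/MS (transitions 303.1→259.1 and 311.1→267.0), and activity was derived from the arachidonic acid/d8-arachidonic acid signal ratio.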

IC50 [nM]	Compound
243	O=C1CO[C@H]2CCN(C(=O)N3CCC(c4cc(Cl)cc(Cl)c4)C3)C[C@H]2N1 (stereo partly drawn) [Example 235, (4aR,8aS)-6-(3-(3,5-Dichlorophenyl)pyrrolidine-1-carbonyl)hexahydro-2H-pyrido[4,3-b][1,4]oxazin-3(4H)-one]
15	COC1(C)CN(c2ccc(C3CN(C(=O)N4CC[C@@H]5OCC(=O)N[C@@H]5C4)C3)cc2)C1 [Example 236, (4aR,8aS)-6-(3-(4-(3-Methoxy-3-methylazetidin-1-yl)phenyl)azetidine-1-carbonyl)hexahydro-2H-pyrido[4,3-b][1,4]oxazin-3(4H)-one]
1	CC(C)(C)OC(=O)NCCOc1cccc(C(c2ccccc2)C2CCN(C(=O)N3CC[C@@H]4OCC(=O)N[C@@H]4C3)CC2)c1 (stereo partly drawn) [Example 237, tert-Butyl (2-(3-((1-((4aR,8aS)-3-oxooctahydro-2H-pyrido[4,3-b][1,4]oxazine-6-carbonyl)piperidin-4-yl)(phenyl)methyl)phenoxy)ethyl)carbamate]
2	COc1cc(C2CN(C(=O)N3CC[C@@H]4OCC(=O)N[C@@H]4C3)C2)ccc1C(C)(C)C [Example 240, (4aR,8aS)-6-(3-(4-(tert-Butyl)-3-methoxyphenyl)azetidine-1-carbonyl)hexahydro-2H-pyrido[4,3-b][1,4]oxazin-3(4H)-one]
245	Cn1ncc2cc(C3CN(C(=O)N4CC[C@@H]5OCC(=O)N[C@@H]5C4)C3)ccc21 [Example 241, (4aR,8aS)-6-(3-(1-Methyl-1H-indazol-5-yl)azetidine-1-carbonyl)hexahydro-2H-pyrido[4,3-b][1,4]oxazin-3(4H)-one]
2	CCCc1ccc(C2CN(C(=O)N3CC[C@@H]4OCC(=O)N[C@@H]4C3)C2)cc1 [Example 242, (4aR,8aS)-6-(3-(4-Propylphenyl)azetidine-1-carbonyl)hexahydro-2H-pyrido[4,3-b][1,4]oxazin-3(4H)-one]
10	O=C1CO[C@H]2CCN(C(=O)N3CC(c4ccc(OC(F)(F)F)c(C(F)(F)F)c4)C3)C[C@H]2N1 [Example 243, (4aR,8aS)-6-(3-(4-(Trifluoromethoxy)-3-(trifluoromethyl)phenyl)azetidine-1-carbonyl)hexahydro-2H-pyrido[4,3-b][1,4]oxazin-3(4H)-one]
0.3	O=C1CO[C@H]2CCN(C(=O)N3CC(c4ccc(OCC5(C(F)(F)F)CC5)cc4)C3)C[C@H]2N1 [Example 244, (4aR,8aS)-6-[3-[4-[[1-(Trifluoromethyl)cyclopropyl]methoxy]phenyl]azetidine-1-carbonyl]-4,4a,5,7,8,8a-hexahydropyrido[4,3-b][1,4]oxazin-3-one]
0.4	CC(C)(c1ccc(C2CN(C(=O)N3CC[C@@H]4OCC(=O)N[C@@H]4C3)C2)cc1)C(F)(F)F [Example 245, (4aR,8aS)-6-[3-[4-(2,2,2-Trifluoro-1,1-dimethyl-ethyl)phenyl]azetidine-1-carbonyl]-4,4a,5,7,8,8a-hexahydropyrido[4,3-b][1,4]oxazin-3-one]
6	O=C1CO[C@H]2CCN(C(=O)N3CC(c4ccc(CCCF)cc4)C3)C[C@H]2N1 [Example 247, (4aR,8aS)-6-[3-[4-(3-Fluoropropyl)phenyl]azetidine-1-carbonyl]-4,4a,5,7,8,8a-hexahydropyrido[4,3-b][1,4]oxazin-3-one]
106	COc1cc(C2CN(C(=O)N3CC[C@@H]4OCC(=O)N[C@@H]4C3)C2)ccc1C [Example 250, (4aR,8aS)-6-[3-(3-Methoxy-4-methyl-phenyl)azetidine-1-carbonyl]-4,4a,5,7,8,8a-hexahydropyrido[4,3-b][1,4]oxazin-3-one]
1	Cn1nc(OC(c2ccc(F)cc2)C2CCN(C(=O)N3CC[C@@H]4OCC(=O)N[C@@H]4C3)CC2)cc1C(F)(F)F (stereo partly drawn) [Example 251, (4aR,8aS)-6-(4-((4-Fluorophenyl)((1-methyl-5-(trifluoromethyl)-1H-pyrazol-3-yl)oxy)methyl)piperidine-1-carbonyl)hexahydro-2H-pyrido[4,3-b][1,4]oxazin-3(4H)-one]
2	NCCOc1cccc(C(c2ccccc2)C2CCN(C(=O)N3CC[C@@H]4OCC(=O)N[C@@H]4C3)CC2)c1 (stereo partly drawn) [Example 252, (4aR,8aS)-6-[4-[[3-(2-Aminoethoxy)phenyl]-phenyl-methyl]piperidine-1-carbonyl]-4,4a,5,7,8,8a-hexahydropyrido[4,3-b][1,4]oxazin-3-one]
4	O=C1CO[C@H]2CCN(C(=O)N3CC(c4nnc(-c5ccc(Cl)cc5Cl)o4)C3)C[C@H]2N1 [Example 253, (4aR,8aS)-6-[3-[5-(2,4-Dichlorophenyl)-1,3,4-oxadiazol-2-yl]azetidine-1-carbonyl]-4,4a,5,7,8,8a-hexahydropyrido[4,3-b][1,4]oxazin-3-one]
82	O=C1CO[C@H]2CCN(C(=O)N3CC(c4ccc(C(F)(F)F)c(F)c4)C3)C[C@H]2N1 [Example 254]
2	CC(C)(C)OC(=O)NCCOCCC(=O)NCCOc1cccc(C(c2ccccc2)C2CCN(C(=O)N3CC[C@@H]4OCC(=O)N[C@@H]4C3)CC2)c1 (stereo partly drawn) [Example 255, tert-Butyl N-[2-[3-[2-[3-[[1-[(4aR,8aS)-3-oxo-4,4a,5,7,8,8a-hexahydropyrido[4,3-b][1,4]oxazine-6-carbonyl]-4-piperidyl]-phenyl-methyl]phenoxy]ethylamino]-3-oxo-propoxy]ethyl]carbamate]
2	CC(C)(C)OC(=O)NCCOCCOCCC(=O)NCCOc1cccc(C(c2ccccc2)C2CCN(C(=O)N3CC[C@@H]4OCC(=O)N[C@@H]4C3)CC2)c1 (stereo partly drawn) [Example 256, tert-Butyl N-[2-[2-[3-[2-[3-[[1-[(4aR,8aS)-3-oxo-4,4a,5,7,8,8a-hexahydropyrido[4,3-b][1,4]oxazine-6-carbonyl]-4-piperidyl]-phenyl-methyl]phenoxy]ethylamino]-3-oxo-propoxy]ethoxy]ethyl]carbamate]
233	O=C1CO[C@H]2CCN(C(=O)N3CC(c4ccn(-c5ccc(Cl)cc5Cl)n4)C3)C[C@H]2N1 [Example 257, (4aR,8aS)-6-[3-[1-(2,4-Dichlorophenyl)pyrazol-3-yl]azetidine-1-carbonyl]-4,4a,5,7,8,8a-hexahydropyrido[4,3-b][1,4]oxazin-3-one]
5	CCCOc1ccc(C2CN(C(=O)N3CC[C@@H]4OCC(=O)N[C@@H]4C3)C2)cc1 [Example 258, (4aR,8aS)-6-[3-(4-Propoxyphenyl)azetidine-1-carbonyl]-4,4a,5,7,8,8a-hexahydropyrido[4,3-b][1,4]oxazin-3-one]
30	Cc1ccc(C2CN(C(=O)N3CC[C@@H]4OCC(=O)N[C@@H]4C3)C2)cc1C [Example 259, (4aR,8aS)-6-[3-(3,4-Dimethylphenyl)azetidine-1-carbonyl]-4,4a,5,7,8,8a-hexahydropyrido [4,3-b][1,4]oxazin-3-one]
3	CCNC(=O)c1cc(C)ccc1-c1ccc(C2CN(C(=O)N3CC[C@@H]4OCC(=O)N[C@@H]4C3)C2)cc1 [Example 260, 2-[4-[1-[(4aR,8aS)-3-Oxo-4,4a,5,7,8,8a-hexahydropyrido[4,3-b][1,4]oxazine-6-carbonyl]azetidin-3-yl]phenyl]-N-ethyl-5-methyl-benzamide]
